Legend:
[1] = target: T1, Prostaglandin G/H synthase 1 (Homo sapiens, UniProt P23219); assay type: functional
[2] = target: Sodium-dependent serotonin transporter (Homo sapiens, UniProt P31645)
[3] = target: T1, Prostaglandin G/H synthase 1; assay type: functional; remark: listed apart in the source
Acetylcholinesterase = Acetylcholinesterase (Homo sapiens, UniProt P22303); assay type: functional
Prothrombin = Prothrombin (Homo sapiens, UniProt P00734); assay type: functional
D(1A) dopamine receptor = D(1A) dopamine receptor (Homo sapiens, UniProt P21728)
Sequence of D(1A) dopamine receptor (P21728 whole entry): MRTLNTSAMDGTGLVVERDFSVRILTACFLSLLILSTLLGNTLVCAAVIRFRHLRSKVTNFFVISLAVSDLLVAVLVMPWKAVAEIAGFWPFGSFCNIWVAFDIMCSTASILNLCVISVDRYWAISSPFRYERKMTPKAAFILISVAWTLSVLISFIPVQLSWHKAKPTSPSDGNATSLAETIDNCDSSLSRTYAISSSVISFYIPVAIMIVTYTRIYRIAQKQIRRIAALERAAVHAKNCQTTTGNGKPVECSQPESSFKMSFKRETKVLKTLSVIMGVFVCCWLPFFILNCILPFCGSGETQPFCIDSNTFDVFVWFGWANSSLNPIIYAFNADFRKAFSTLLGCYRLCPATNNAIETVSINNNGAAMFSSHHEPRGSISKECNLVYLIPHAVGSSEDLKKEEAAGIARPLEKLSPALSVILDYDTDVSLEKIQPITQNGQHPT

[4] = target: T2, Muscarinic acetylcholine receptor M1 (Homo sapiens, UniProt P11229); assay type: functional, cell-based
T2 sequence (P11229 whole entry): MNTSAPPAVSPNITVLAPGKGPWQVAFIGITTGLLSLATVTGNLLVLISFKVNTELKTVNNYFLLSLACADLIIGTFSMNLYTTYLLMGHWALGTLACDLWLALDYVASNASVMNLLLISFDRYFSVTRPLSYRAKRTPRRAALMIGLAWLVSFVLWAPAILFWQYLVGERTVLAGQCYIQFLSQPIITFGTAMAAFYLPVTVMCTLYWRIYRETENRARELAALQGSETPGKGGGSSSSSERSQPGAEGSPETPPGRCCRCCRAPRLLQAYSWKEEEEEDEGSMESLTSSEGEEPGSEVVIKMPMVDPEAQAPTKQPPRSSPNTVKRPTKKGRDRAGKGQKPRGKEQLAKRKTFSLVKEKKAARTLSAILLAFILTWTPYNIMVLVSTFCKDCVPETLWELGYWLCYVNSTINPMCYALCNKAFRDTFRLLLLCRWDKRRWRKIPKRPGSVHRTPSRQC

Adenosine receptor A3 = target: T3, Adenosine receptor A3 (Homo sapiens, UniProt P0DMS8)
T3 sequence (P0DMS8 whole entry): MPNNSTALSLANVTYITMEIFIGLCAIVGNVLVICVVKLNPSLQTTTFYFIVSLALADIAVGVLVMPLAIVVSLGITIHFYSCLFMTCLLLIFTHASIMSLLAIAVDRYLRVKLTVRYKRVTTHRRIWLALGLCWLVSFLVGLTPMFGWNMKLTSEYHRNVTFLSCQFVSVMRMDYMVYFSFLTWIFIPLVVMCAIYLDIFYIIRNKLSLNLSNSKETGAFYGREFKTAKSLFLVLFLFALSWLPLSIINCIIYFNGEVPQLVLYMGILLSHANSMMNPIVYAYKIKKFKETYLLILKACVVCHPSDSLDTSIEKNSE

D(3) dopamine receptor = D(3) dopamine receptor (Homo sapiens, UniProt P35462)
Sequence of D(3) dopamine receptor (P35462 whole entry): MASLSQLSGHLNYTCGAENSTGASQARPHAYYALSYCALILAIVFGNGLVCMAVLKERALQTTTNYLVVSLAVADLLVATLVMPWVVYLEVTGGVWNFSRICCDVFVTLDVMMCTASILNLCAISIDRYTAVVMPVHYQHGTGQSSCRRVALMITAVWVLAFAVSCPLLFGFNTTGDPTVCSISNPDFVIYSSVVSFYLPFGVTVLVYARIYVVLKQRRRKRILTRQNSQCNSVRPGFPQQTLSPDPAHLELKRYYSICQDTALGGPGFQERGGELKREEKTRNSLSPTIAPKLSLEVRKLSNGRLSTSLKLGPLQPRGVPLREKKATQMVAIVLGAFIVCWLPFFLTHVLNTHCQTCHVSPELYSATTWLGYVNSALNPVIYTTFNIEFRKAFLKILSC

Cannabinoid receptor 1 = Cannabinoid receptor 1 (Homo sapiens, UniProt P21554); assay type: functional, cell-based
Sequence of Cannabinoid receptor 1 (P21554 whole entry): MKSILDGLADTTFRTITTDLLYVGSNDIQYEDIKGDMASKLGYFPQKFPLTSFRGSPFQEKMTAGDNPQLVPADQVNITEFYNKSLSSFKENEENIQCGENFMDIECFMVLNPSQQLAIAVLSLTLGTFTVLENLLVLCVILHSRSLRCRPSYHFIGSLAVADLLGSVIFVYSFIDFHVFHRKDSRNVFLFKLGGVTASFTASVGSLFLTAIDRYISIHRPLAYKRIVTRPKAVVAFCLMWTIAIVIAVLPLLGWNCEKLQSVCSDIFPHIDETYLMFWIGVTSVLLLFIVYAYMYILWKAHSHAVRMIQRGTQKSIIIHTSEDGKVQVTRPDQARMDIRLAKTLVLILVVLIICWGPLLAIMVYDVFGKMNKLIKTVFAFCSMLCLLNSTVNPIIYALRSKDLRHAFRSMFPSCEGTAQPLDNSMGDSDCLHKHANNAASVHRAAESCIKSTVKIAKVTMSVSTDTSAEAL

Histamine H3 receptor = Histamine H3 receptor (Homo sapiens, UniProt Q9Y5N1)
Sequence of Histamine H3 receptor (Q9Y5N1 whole entry): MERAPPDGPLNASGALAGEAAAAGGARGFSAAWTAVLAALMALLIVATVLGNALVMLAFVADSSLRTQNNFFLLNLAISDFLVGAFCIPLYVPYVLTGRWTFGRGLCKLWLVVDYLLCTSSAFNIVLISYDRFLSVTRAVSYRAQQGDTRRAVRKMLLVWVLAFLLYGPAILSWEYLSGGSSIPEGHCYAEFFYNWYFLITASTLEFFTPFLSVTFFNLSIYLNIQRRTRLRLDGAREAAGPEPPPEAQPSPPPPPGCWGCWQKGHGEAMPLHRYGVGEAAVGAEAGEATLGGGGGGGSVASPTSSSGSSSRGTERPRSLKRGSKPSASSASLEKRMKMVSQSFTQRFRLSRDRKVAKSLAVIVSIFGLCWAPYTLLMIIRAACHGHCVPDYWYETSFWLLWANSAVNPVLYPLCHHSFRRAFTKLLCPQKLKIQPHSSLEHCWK

[5] = target: T4, Alpha-2B adrenergic receptor (Homo sapiens, UniProt P18089)
T4 sequence (P18089 whole entry): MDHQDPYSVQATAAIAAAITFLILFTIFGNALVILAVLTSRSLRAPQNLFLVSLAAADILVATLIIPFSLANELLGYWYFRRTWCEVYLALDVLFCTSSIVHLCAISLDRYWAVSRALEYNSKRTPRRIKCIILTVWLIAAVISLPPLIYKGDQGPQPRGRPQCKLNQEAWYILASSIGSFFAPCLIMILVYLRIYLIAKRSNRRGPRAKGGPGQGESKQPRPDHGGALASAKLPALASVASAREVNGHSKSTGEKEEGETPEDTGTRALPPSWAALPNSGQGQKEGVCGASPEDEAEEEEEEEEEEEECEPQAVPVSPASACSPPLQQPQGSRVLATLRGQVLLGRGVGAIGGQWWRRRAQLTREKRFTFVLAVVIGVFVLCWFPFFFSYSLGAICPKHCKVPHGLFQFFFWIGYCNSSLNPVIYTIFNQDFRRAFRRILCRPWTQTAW

B2 bradykinin receptor = target: T5, B2 bradykinin receptor (Homo sapiens, UniProt P30411)
T5 sequence (P30411 whole entry): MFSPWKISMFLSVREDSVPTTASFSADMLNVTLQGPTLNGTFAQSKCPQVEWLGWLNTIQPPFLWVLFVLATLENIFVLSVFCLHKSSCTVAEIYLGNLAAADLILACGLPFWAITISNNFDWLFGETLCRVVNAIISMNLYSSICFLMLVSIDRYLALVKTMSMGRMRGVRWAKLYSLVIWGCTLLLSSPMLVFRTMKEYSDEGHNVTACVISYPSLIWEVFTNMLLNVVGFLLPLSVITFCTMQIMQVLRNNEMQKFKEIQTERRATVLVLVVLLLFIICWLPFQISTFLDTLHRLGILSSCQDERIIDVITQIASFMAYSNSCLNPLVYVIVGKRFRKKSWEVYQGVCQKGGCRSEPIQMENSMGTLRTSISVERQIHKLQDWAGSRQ

Melanocortin receptor 4 = Melanocortin receptor 4 (Homo sapiens, UniProt P32245)
Sequence of Melanocortin receptor 4 (P32245 whole entry): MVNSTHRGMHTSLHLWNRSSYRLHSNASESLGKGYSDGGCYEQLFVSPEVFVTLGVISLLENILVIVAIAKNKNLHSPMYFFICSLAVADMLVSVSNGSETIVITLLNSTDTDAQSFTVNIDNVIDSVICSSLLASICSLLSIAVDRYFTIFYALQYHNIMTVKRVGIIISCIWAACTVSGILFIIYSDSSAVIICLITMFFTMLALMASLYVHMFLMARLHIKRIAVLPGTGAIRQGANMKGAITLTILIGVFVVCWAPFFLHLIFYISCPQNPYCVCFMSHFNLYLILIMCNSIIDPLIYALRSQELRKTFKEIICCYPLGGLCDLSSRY

[6] = target: T6, Alpha-1A adrenergic receptor (Homo sapiens, UniProt P35348)
T6 sequence (P35348 whole entry): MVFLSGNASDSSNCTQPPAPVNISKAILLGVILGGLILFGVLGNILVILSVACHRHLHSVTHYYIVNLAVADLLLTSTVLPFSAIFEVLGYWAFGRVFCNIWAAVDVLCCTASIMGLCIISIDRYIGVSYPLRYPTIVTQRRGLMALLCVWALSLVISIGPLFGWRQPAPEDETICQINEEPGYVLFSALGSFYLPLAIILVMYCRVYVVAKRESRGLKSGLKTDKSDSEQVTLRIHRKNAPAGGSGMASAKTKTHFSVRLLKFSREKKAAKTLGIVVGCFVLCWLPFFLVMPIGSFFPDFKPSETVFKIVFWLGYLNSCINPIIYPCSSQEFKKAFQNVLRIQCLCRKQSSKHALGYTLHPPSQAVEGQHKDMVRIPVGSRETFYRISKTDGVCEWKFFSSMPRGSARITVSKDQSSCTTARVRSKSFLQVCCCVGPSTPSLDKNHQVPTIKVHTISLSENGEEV

[7] = target: Beta-2 adrenergic receptor (Homo sapiens, UniProt P07550)
Sequence of Beta-2 adrenergic receptor (P07550 whole entry): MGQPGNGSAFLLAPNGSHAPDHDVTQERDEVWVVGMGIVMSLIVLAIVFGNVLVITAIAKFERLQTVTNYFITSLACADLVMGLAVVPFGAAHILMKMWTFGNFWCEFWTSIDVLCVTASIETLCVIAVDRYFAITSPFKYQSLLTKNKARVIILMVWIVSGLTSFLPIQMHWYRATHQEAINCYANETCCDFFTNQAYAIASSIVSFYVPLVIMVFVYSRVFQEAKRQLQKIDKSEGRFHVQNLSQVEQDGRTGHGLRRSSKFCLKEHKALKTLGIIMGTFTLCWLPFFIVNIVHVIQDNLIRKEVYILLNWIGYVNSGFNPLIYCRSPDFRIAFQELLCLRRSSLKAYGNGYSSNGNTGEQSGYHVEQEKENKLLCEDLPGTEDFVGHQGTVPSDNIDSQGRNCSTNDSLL

[8] = target: Kappa-type opioid receptor (Homo sapiens, UniProt P41145)
Sequence of Kappa-type opioid receptor (P41145 whole entry): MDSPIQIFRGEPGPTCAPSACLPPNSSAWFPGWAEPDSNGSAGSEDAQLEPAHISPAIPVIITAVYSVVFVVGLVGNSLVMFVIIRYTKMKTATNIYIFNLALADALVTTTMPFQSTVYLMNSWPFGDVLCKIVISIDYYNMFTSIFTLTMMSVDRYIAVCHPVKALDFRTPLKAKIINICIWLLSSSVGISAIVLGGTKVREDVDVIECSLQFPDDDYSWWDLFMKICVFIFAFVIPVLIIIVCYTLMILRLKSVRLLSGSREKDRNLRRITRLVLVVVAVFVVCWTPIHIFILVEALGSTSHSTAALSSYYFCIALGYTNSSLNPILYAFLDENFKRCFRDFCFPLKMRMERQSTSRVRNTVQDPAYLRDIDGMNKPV
Note: assay procedure not described here.

Sequence of Sodium-dependent serotonin transporter (P31645 whole entry): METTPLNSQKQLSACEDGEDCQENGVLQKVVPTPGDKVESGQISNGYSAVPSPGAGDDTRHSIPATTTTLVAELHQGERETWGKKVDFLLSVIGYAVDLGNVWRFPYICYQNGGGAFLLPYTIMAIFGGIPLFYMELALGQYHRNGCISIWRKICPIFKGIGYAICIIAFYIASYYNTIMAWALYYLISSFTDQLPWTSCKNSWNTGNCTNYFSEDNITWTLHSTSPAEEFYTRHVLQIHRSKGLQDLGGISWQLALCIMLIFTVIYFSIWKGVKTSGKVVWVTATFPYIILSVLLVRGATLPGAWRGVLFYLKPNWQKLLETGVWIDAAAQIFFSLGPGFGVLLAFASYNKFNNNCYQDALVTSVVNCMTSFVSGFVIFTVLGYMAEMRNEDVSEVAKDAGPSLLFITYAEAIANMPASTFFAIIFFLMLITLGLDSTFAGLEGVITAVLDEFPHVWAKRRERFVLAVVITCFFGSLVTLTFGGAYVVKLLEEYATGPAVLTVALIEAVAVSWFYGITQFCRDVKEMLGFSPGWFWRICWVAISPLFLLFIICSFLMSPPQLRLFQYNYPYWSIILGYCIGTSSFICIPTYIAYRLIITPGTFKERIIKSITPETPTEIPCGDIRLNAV
T1 sequence (P23219 whole entry): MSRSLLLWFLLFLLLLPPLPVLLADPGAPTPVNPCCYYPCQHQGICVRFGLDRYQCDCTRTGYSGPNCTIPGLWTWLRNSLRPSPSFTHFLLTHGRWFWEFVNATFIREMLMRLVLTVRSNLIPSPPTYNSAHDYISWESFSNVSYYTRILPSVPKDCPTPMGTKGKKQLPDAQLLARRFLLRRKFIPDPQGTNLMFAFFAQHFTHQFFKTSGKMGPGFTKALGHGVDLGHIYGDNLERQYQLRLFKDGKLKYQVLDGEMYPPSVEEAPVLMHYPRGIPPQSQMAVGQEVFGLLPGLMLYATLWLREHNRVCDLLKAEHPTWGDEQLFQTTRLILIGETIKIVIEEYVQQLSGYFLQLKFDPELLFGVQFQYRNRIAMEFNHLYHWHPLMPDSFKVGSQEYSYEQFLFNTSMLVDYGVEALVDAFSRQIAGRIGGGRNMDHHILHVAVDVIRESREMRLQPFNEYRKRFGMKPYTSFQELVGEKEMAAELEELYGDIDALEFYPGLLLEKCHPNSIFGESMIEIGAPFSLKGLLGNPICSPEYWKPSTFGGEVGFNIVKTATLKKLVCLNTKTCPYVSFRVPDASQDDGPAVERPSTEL
Sequence of Acetylcholinesterase (P22303 whole entry): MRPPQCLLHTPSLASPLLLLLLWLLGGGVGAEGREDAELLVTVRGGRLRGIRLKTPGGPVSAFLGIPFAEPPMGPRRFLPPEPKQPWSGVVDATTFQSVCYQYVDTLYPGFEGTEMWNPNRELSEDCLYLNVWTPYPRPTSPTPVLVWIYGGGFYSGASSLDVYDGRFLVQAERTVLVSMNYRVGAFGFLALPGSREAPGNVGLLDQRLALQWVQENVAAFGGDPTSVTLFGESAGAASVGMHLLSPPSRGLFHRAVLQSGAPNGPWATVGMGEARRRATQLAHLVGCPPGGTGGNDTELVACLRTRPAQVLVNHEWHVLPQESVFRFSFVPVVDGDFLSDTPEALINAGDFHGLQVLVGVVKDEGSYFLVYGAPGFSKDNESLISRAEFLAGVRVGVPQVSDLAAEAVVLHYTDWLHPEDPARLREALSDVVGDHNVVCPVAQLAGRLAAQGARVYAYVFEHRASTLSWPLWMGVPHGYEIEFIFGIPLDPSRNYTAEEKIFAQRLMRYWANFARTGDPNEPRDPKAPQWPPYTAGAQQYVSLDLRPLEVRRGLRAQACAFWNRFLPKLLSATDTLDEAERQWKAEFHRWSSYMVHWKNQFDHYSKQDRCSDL

Compound	AC50 [1]	AC50 [2]	AC50 [3]	AC50 (Acetylcholinesterase)	AC50 (Prothrombin)	AC50 (D(1A) dopamine receptor)	AC50 [4]	AC50 (Adenosine receptor A3)	AC50 (D(3) dopamine receptor)	AC50 (Cannabinoid receptor 1)	AC50 (Histamine H3 receptor)	AC50 [5]	AC50 (B2 bradykinin receptor)	AC50 (Melanocortin receptor 4)	AC50 [6]	AC50 [7]	AC50 [8]
O=C(O)c1cc(O)ccc1O [GENTISIC ACID]	> 30 µM	> 30 µM	> 30 µM	> 30 µM	> 30 µM	> 30 µM	> 30 µM	> 30 µM	> 30 µM	–	–	–	–	–	–	–	–
CC(C)Nc1ncccn1 [ISAXONINE]	> 30 µM	> 30 µM	> 30 µM	> 30 µM	> 30 µM	> 30 µM	> 30 µM	> 30 µM	> 30 µM	–	–	–	–	–	–	–	–
N[C@@H](C(=O)N[C@@H]1C(=O)N2C(C(=O)O)=C(Cl)CC[C@H]12)c1ccccc1 [LORACARBEF ANHYDROUS]	> 30 µM	> 30 µM	> 30 µM	> 30 µM	> 30 µM	> 30 µM	> 30 µM	> 30 µM	> 30 µM	–	–	–	–	–	–	–	–
OCCN1C[C@H](O)[C@@H](O)[C@H](O)[C@H]1CO [MIGLITOL]	> 30 µM	> 30 µM	> 30 µM	> 30 µM	> 30 µM	> 30 µM	> 30 µM	> 30 µM	> 30 µM	–	–	–	–	–	–	–	–
CC(=O)N[C@@H]1[C@@H](O)[C@H](O)[C@@H](CO)O[C@H]1O [N-ACETYLGLUCOSAMINE]	> 30 µM	> 30 µM	> 30 µM	> 30 µM	> 30 µM	> 30 µM	> 30 µM	> 30 µM	> 30 µM	–	–	–	–	–	–	–	–
COCCCN1CCC(NC(=O)c2cc(Cl)c(N)c3c2OCC3)CC1 [PRUCALOPRIDE]	23.6 µM	> 30 µM	> 30 µM	26.7 µM	> 30 µM	> 30 µM	> 30 µM	–	> 30 µM	> 30 µM	> 30 µM	> 30 µM	–	–	–	–	–
C=C[C@H]1C[N@@]2CC[C@H]1C[C@H]2[C@H](O)c1ccnc2ccc(OC)cc12 [QUININE]	> 10 µM	–	> 30 µM	> 30 µM	> 30 µM	> 30 µM	> 30 µM	> 30 µM	> 30 µM	–	–	–	–	–	–	–	–
Cc1cn([C@H]2C=C[C@@H](CO)O2)c(=O)[nH]c1=O [STAVUDINE]	> 30 µM	–	> 30 µM	> 30 µM	> 30 µM	> 30 µM	–	> 30 µM	> 30 µM	> 30 µM	> 30 µM	–	> 30 µM	> 30 µM	29.9 µM	> 10 µM	> 10 µM
Cc1cn([C@H]2C[C@H](N=[N+]=[N-])[C@@H](CO)O2)c(=O)[nH]c1=O [ZIDOVUDINE]	> 30 µM	–	> 30 µM	> 30 µM	> 30 µM	> 30 µM	–	> 30 µM	> 30 µM	> 30 µM	> 10 µM	–	> 30 µM	> 30 µM	> 10 µM	> 10 µM	> 10 µM

From ChEMBL document CHEMBL5291721, “A preclinical secondary pharmacology resource illuminates target-adverse drug reaction associations of marketed drugs” (Nat Commun, 2023)
